Laboratory results: the supplement of paper PMC8612539
Converted amounts (≈) assume the structure as drawn.

Test system: Histophilus somni
Assay: minimum inhibitory concentration (MIC)
Description: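 Broth microdilution MIC (Sensititre BOPO7F bovine plate, CLSI methods) of 19 antimicrobials against field isolates of P. multocida, M. haemolytica, H. somni (deep nasopharyngeal swabs) and E. coli, Enterococcus spp. (rectal swabs) from weaned dairy heifers. Incubation 16-24 h at 35 C. MIC is the lowest concentration preventing visible growth. Values with <= or > lie at the tested range limits. Trimethoprim-sulfamethoxazole is given as the trimethoprim component of a 1:19 mixture.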

C=C[C@]1(C)C[C@@H](OC(=O)CSCCN(CC)CC)[C@]2(C)[C@H](C)CC[C@]3(CCC(=O)[C@H]32)[C@@H](C)[C@@H]1O [Tiamulin]
Conditions | minimum inhibitory concentration [mg/L]
isolate (source animal id): 3 | 1 (≈ 2.03 µM)
isolate (source animal id): 4 | 1 (≈ 2.03 µM)
isolate (source animal id): 7 | 1 (≈ 2.03 µM)
isolate (source animal id): 14 | 2 (≈ 4.05 µM)
isolate (source animal id): 15 | 1 (≈ 2.03 µM)
isolate (source animal id): 17 | 1 (≈ 2.03 µM)
isolate (source animal id): 18 | 1 (≈ 2.03 µM)
isolate (source animal id): 20 | ≤ 0.5
isolate (source animal id): 23 | 1 (≈ 2.03 µM)
isolate (source animal id): 45 | 2 (≈ 4.05 µM)
isolate (source animal id): 53 | 2 (≈ 4.05 µM)
isolate (source animal id): 83 | 1 (≈ 2.03 µM)
isolate (source animal id): 88 | 1 (≈ 2.03 µM)
isolate (source animal id): 92 | 2 (≈ 4.05 µM)
isolate (source animal id): 93 | 1 (≈ 2.03 µM)
isolate (source animal id): 99 | 2 (≈ 4.05 µM)
isolate (source animal id): 100 | 2 (≈ 4.05 µM)
isolate (source animal id): 105 | 1 (≈ 2.03 µM)
isolate (source animal id): 107 | 2 (≈ 4.05 µM)
isolate (source animal id): 108 | 2 (≈ 4.05 µM)
isolate (source animal id): 109 | 2 (≈ 4.05 µM)
isolate (source animal id): 110 | 2 (≈ 4.05 µM)
isolate (source animal id): 117 | 1 (≈ 2.03 µM)
isolate (source animal id): 121 | 1 (≈ 2.03 µM)
isolate (source animal id): 123 | 1 (≈ 2.03 µM)
isolate (source animal id): 124 | 2 (≈ 4.05 µM)
isolate (source animal id): 127 | 1 (≈ 2.03 µM)
isolate (source animal id): 128 | 1 (≈ 2.03 µM)
isolate (source animal id): 130 | 1 (≈ 2.03 µM)
isolate (source animal id): 132 | 2 (≈ 4.05 µM)
isolate (source animal id): 135 | 1 (≈ 2.03 µM)
isolate (source animal id): 140 | 2 (≈ 4.05 µM)
isolate (source animal id): 141 | 2 (≈ 4.05 µM)
isolate (source animal id): 142 | 2 (≈ 4.05 µM)
isolate (source animal id): 144 | 2 (≈ 4.05 µM)
isolate (source animal id): 146 | 1 (≈ 2.03 µM)
isolate (source animal id): 147 | 2 (≈ 4.05 µM)
isolate (source animal id): 151 | 1 (≈ 2.03 µM)
isolate (source animal id): 153 | 2 (≈ 4.05 µM)
isolate (source animal id): 154 | 2 (≈ 4.05 µM)
isolate (source animal id): 156 | 2 (≈ 4.05 µM)
isolate (source animal id): 157 | 2 (≈ 4.05 µM)
isolate (source animal id): 176 | 4 (≈ 8.1 µM)
isolate (source animal id): 183 | 2 (≈ 4.05 µM)
isolate (source animal id): 186 | 2 (≈ 4.05 µM)
isolate (source animal id): 196 | 2 (≈ 4.05 µM)
isolate (source animal id): 198 | 1 (≈ 2.03 µM)
isolate (source animal id): 200 | 2 (≈ 4.05 µM)
isolate (source animal id): 206 | 1 (≈ 2.03 µM)
isolate (source animal id): 208 | 2 (≈ 4.05 µM)
isolate (source animal id): 210 | ≤ 0.5
isolate (source animal id): 212 | ≤ 0.5
isolate (source animal id): 215 | 2 (≈ 4.05 µM)
isolate (source animal id): 216 | 2 (≈ 4.05 µM)
isolate (source animal id): 218 | 2 (≈ 4.05 µM)
isolate (source animal id): 219 | 2 (≈ 4.05 µM)
isolate (source animal id): 224 | 2 (≈ 4.05 µM)
isolate (source animal id): 228 | 2 (≈ 4.05 µM)
isolate (source animal id): 230 | 2 (≈ 4.05 µM)
isolate (source animal id): 233 | 1 (≈ 2.03 µM)
isolate (source animal id): 238 | ≤ 0.5
isolate (source animal id): 239 | 2 (≈ 4.05 µM)
isolate (source animal id): 241 | 2 (≈ 4.05 µM)
isolate (source animal id): 242 | 2 (≈ 4.05 µM)
isolate (source animal id): 243 | 2 (≈ 4.05 µM)
isolate (source animal id): 245 | 2 (≈ 4.05 µM)
isolate (source animal id): 246 | 4 (≈ 8.1 µM)
isolate (source animal id): 247 | 2 (≈ 4.05 µM)
isolate (source animal id): 248 | 1 (≈ 2.03 µM)
isolate (source animal id): 250 | 2 (≈ 4.05 µM)
isolate (source animal id): 251 | 2 (≈ 4.05 µM)
isolate (source animal id): 252 | 4 (≈ 8.1 µM)
isolate (source animal id): 254 | 2 (≈ 4.05 µM)
isolate (source animal id): 258 | 2 (≈ 4.05 µM)
isolate (source animal id): 259 | 1 (≈ 2.03 µM)
isolate (source animal id): 262 | 1 (≈ 2.03 µM)
isolate (source animal id): 264 | ≤ 0.5
isolate (source animal id): 265 | 1 (≈ 2.03 µM)
isolate (source animal id): 266 | 1 (≈ 2.03 µM)
isolate (source animal id): 267 | 1 (≈ 2.03 µM)
isolate (source animal id): 269 | 1 (≈ 2.03 µM)
isolate (source animal id): 271 | 1 (≈ 2.03 µM)
isolate (source animal id): 272 | 1 (≈ 2.03 µM)
isolate (source animal id): 274 | 1 (≈ 2.03 µM)
isolate (source animal id): 276 | 1 (≈ 2.03 µM)
isolate (source animal id): 278 | 1 (≈ 2.03 µM)
isolate (source animal id): 280 | ≤ 0.5
isolate (source animal id): 281 | 2 (≈ 4.05 µM)
isolate (source animal id): 283 | 1 (≈ 2.03 µM)
isolate (source animal id): 288 | 1 (≈ 2.03 µM)
isolate (source animal id): 291 | 1 (≈ 2.03 µM)
isolate (source animal id): 292 | 1 (≈ 2.03 µM)
isolate (source animal id): 296 | ≤ 0.5
isolate (source animal id): 306 | 1 (≈ 2.03 µM)
isolate (source animal id): 336 | 1 (≈ 2.03 µM)
isolate (source animal id): 337 | 1 (≈ 2.03 µM)
isolate (source animal id): 341 | 1 (≈ 2.03 µM)
